We go through twelve molecules from ChEMBL document CHEMBL3045903, “Computational evaluation and experimental verification of antibacterial activity of some -lactams: advantages and limitations” (2013).

What all share (type): functional
One assay deals with Escherichia coli. In words: Antibacterial activity against Escherichia coli by disk diffusion method.
A further assay concerns Klebsiella pneumoniae. Briefly: Antibacterial activity against Klebsiella pneumoniae by disk diffusion method. A general note: A growth-free zone around the sample is the usual read-out of agar diffusion tests.
Another assay concerns Bacillus subtilis. Briefly: Antibacterial activity against Bacillus subtilis by disk diffusion method.
In the next assay the test system is Staphylococcus. Briefly: Antibacterial activity against Staphylococcus citrus by disc diffusion method.

For `CCOC(=O)C1C(c2ccccc2)CC2C(NC(=O)/C=C/c3ccccc3)C(=O)N21` (stereo not drawn), the “inhibition zone (IZ)” value in the assay with Escherichia coli, with Klebsiella pneumoniae, in the assay with Bacillus subtilis and with Staphylococcus was less than 6 mm in each case.

In the case of `CCOC(=O)C1C(c2ccccc2)CC2C(NC(=O)COc3ccccc3)C(=O)N21` (stereo not drawn), the “inhibition zone (IZ)” value with Escherichia coli, with Klebsiella pneumoniae, with Bacillus subtilis and in the assay with Staphylococcus was less than 6 mm each time.

For the molecule `CCOC(=O)C1C(c2ccccc2)CC2C(NC(=O)Cc3ccccc3)C(=O)N21` (stereo not drawn), the “inhibition zone (IZ)” value in the assay with Escherichia coli, with Klebsiella pneumoniae, in the assay with Bacillus subtilis and with Staphylococcus was less than 6 mm in each case.

Consider `CCOC(=O)C1C(c2ccccc2)CC2C(NC(=O)c3ccccc3)C(=O)N21` (stereo not drawn), for which the “inhibition zone (IZ)” value with Escherichia coli, in the assay with Klebsiella pneumoniae, in the assay on Bacillus subtilis and with Staphylococcus was less than 6 mm throughout.

Turning to `CCOC(=O)C(Cc1ccccc1)N1C(=O)C(NC(=O)/C=C/c2ccccc2)C1/C=C/c1ccccc1` (stereo not drawn), the “inhibition zone (IZ)” value in the assay with Escherichia coli, in the assay with Klebsiella pneumoniae, in the assay on Bacillus subtilis and in the assay on Staphylococcus was less than 6 mm in each case.

Take `CCOC(=O)C(Cc1ccccc1)N1C(=O)C(NC(=O)COc2ccccc2)C1/C=C/c1ccccc1` (stereo not drawn): the “inhibition zone (IZ)” value was less than 6 mm with Escherichia coli, less than 6 mm with Klebsiella pneumoniae, more than 12 mm in the assay on Bacillus subtilis and 9 mm in the assay with Staphylococcus.

Take `CCOC(=O)C(Cc1ccccc1)N1C(=O)C(NC(=O)Cc2ccccc2)C1/C=C/c1ccccc1` (stereo not drawn): the “inhibition zone (IZ)” value with Escherichia coli was less than 6 mm; with Klebsiella pneumoniae, less than 6 mm; in the assay on Bacillus subtilis, more than 12 mm; in the assay on Staphylococcus it was 9 mm.

In the case of `CCOC(=O)C(Cc1ccccc1)N1C(=O)C(NC(=O)c2ccccc2)C1/C=C/c1ccccc1` (stereo not drawn), the “inhibition zone (IZ)” value in the assay on Escherichia coli, in the assay on Klebsiella pneumoniae, in the assay on Bacillus subtilis and in the assay with Staphylococcus was less than 6 mm each time.

For the molecule `CCOC(=O)C1C(c2ccccc2)CC2C(NN3C(=O)c4ccccc4C3=O)C(=O)N21` (stereo not drawn), the “inhibition zone (IZ)” value with Escherichia coli, in the assay with Klebsiella pneumoniae, with Bacillus subtilis and with Staphylococcus was less than 6 mm throughout.

For `CCOC(=O)C(Cc1ccccc1)N1C(=O)C(NN2C(=O)c3ccccc3C2=O)C1CO` (stereo not drawn), the “inhibition zone (IZ)” value in the assay on Escherichia coli, with Klebsiella pneumoniae, with Bacillus subtilis and with Staphylococcus was less than 6 mm throughout.

Take `CCOC(=O)C(Cc1ccccc1)N1C(=O)C(NN2C(=O)c3ccccc3C2=O)C1C=O` (stereo not drawn): the “inhibition zone (IZ)” value with Escherichia coli, in the assay with Klebsiella pneumoniae, in the assay on Bacillus subtilis and in the assay on Staphylococcus was less than 6 mm each time.

Consider `CCOC(=O)C(Cc1ccccc1)N1C(=O)C(NN2C(=O)c3ccccc3C2=O)C1/C=C/c1ccccc1` (stereo not drawn), for which the “inhibition zone (IZ)” value is on record as less than 6 mm in the assay with Escherichia coli, less than 6 mm with Klebsiella pneumoniae, more than 12 mm in the assay with Bacillus subtilis and 9 mm with Staphylococcus.
